Measurements taken from PubChem BioAssay AID248 (DTP/NCI, 2004).
Several values for one entry are separate records, joined by “and”; a condition that tells them apart may be missing. Equal values may be shown once. Toxic doses and inconclusive results are not listed. Rule as the data show it: active = T/C of 150% or more; inactive = T/C below 125%.

Test system: L1210 leukemia ip in BDF1 mice, survival T/C
Assay: NCI In Vivo Anticancer Drug Screen. Data for tumor model L1210 Leukemia (intraperitoneal) in B6D2F1 (BDF1) mice
Conditions: endpoint: mean survival time, higher = longer survival
Outline: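 Value reflects the ratio of survival in compound-treated mice to survival in vehicle-treated controls, with both groups carrying the same transplanted tumor.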

[1] = dose: 100.0 mg/kg/injection, schedule: Q04DX002 (ip), vehicle: Klucel (hydroxypropylcellulose) (HPC)
[2] = dose: 200.0 mg/kg/injection, schedule: Q04DX002 (ip), vehicle: Klucel (hydroxypropylcellulose) (HPC)
[3] = dose: 400.0 mg/kg/injection, schedule: Q04DX002 (ip), vehicle: Klucel (hydroxypropylcellulose) (HPC)
[4] = dose: 100.0 mg/kg/injection, schedule: Q01DX001 (ip), vehicle: saline
[5] = dose: 200.0 mg/kg/injection, schedule: Q01DX001 (ip), vehicle: saline
[6] = dose: 400.0 mg/kg/injection, schedule: Q01DX001 (ip), vehicle: saline
[7] = dose: 12.5 mg/kg/injection, schedule: Q01DX009 (ip), vehicle: saline with Tween-80

Measured: T/C

C=C(CSCC(N)=O)c1ccccc1
inactive: [1] 97 % of control | [2] 97 % of control | [3] 94 % of control

CCOC(=O)/C(C#N)=C\c1cc(O)c(O)c(OC)c1
inactive: dose: 50.0 mg/kg/injection, schedule: Q01DX001 (ip), vehicle: carboxymethylcellulose (CMC) 100 % of control | dose: 100.0 mg/kg/injection, schedule: Q01DX001 (ip), vehicle: carboxymethylcellulose (CMC) 92 % of control | dose: 200.0 mg/kg/injection, schedule: Q01DX001 (ip), vehicle: carboxymethylcellulose (CMC) 97 % of control | dose: 400.0 mg/kg/injection, schedule: Q01DX001 (ip), vehicle: carboxymethylcellulose (CMC) 103 % of control

O=[N+]([O-])c1ccc(S(=O)(=O)OCC2CO2)cc1 (stereo unspecified)
inactive: dose: 100.0 mg/kg/injection, schedule: Q01DX008 (ip), vehicle: Klucel (hydroxypropylcellulose) (HPC) 108 % of control | dose: 200.0 mg/kg/injection, schedule: Q01DX008 (ip), vehicle: Klucel (hydroxypropylcellulose) (HPC) 95 % of control | dose: 400.0 mg/kg/injection, schedule: Q01DX008 (ip), vehicle: Klucel (hydroxypropylcellulose) (HPC) 89 % of control

O=C(CCl)Nc1ccccn1
inactive: dose: 100.0 mg/kg/injection, schedule: Q04DX003 (ip), vehicle: saline 97 % of control | dose: 200.0 mg/kg/injection, schedule: Q04DX003 (ip), vehicle: saline 97 % of control | dose: 400.0 mg/kg/injection, schedule: Q04DX003 (ip), vehicle: saline 88 % of control

O=C(CBr)c1cc(-c2ccc(Cl)c(Cl)c2)nc2c(Cl)cc(Cl)cc12
inactive: [4] 94 % of control | [5] 95 % of control | [6] 94 % of control

CC1CSC(=S)S1 (stereo unspecified)
inactive: dose: 50.0 mg/kg/injection, schedule: Q04DX003 (ip), vehicle: Klucel (hydroxypropylcellulose) (HPC) 102 % of control | dose: 100.0 mg/kg/injection, schedule: Q04DX003 (ip), vehicle: Klucel (hydroxypropylcellulose) (HPC) 107 % of control | dose: 200.0 mg/kg/injection, schedule: Q04DX003 (ip), vehicle: Klucel (hydroxypropylcellulose) (HPC) 104 % of control

CCCC1OC1CCC (stereo unspecified)
inactive: dose: 100.0 mg/kg/injection, schedule: Q04DX003 (ip), vehicle: saline with Tween-80 109 % of control | dose: 200.0 mg/kg/injection, schedule: Q04DX003 (ip), vehicle: saline with Tween-80 97 % of control | dose: 400.0 mg/kg/injection, schedule: Q04DX003 (ip), vehicle: saline with Tween-80 91 % of control

Cc1cc(NC(=O)Nc2ccc(Cl)cc2Cl)no1
inactive: [7] 95 % of control | dose: 25.0 mg/kg/injection, schedule: Q01DX009 (ip), vehicle: saline with Tween-80 91 % of control | dose: 50.0 mg/kg/injection, schedule: Q01DX009 (ip), vehicle: saline with Tween-80 91 % of control and 92 % of control | dose: 100.0 mg/kg/injection, schedule: Q01DX009 (ip), vehicle: saline with Tween-80 95 % of control | dose: 200.0 mg/kg/injection, schedule: Q01DX009 (ip), vehicle: saline with Tween-80 95 % of control

CCCCCCCCCCCCCCCC(=O)N(CCCN)CCCN
inactive: [7] 109 % of control | dose: 12.5 mg/kg/injection, schedule: Q04DX003 (ip), vehicle: saline 98 % of control | dose: 25.0 mg/kg/injection, schedule: Q04DX003 (ip), vehicle: saline 103 % of control | dose: 50.0 mg/kg/injection, schedule: Q04DX003 (ip), vehicle: saline 101 % of control

O=C(COc1ccc(Br)cc1Br)OCCBr
inactive: [4] 97 % of control | [5] 105 % of control | [6] 100 % of control

Cc1nccn1-c1ccccc1N=Cc1ccc(N(CCCl)CCCl)cc1Cl
inactive: dose: 100.0 mg/kg/injection, schedule: Q04DX002 (ip), vehicle: saline 102 % of control | dose: 200.0 mg/kg/injection, schedule: Q04DX002 (ip), vehicle: saline 102 % of control | dose: 400.0 mg/kg/injection, schedule: Q04DX002 (ip), vehicle: saline 98 % of control

O=C1NC2(CCCCC2)NC12CCCCC2
inactive: dose: 25.0 mg/kg/injection, schedule: Q01DX009 (ip), vehicle: saline 118 % of control | dose: 50.0 mg/kg/injection, schedule: Q01DX009 (ip), vehicle: saline 110 % of control | dose: 100.0 mg/kg/injection, schedule: Q01DX009 (ip), vehicle: saline 106 % of control

Cc1ccc(C(C)C)cc1OCO
inactive: dose: 20.0 mg/kg/injection, schedule: Q01DX Z (ip), vehicle: methylcellulose (MC) 98 % of control | dose: 30.0 mg/kg/injection, schedule: Q01DX Z (ip), vehicle: methylcellulose (MC) 105 % of control

CCOc1cc(/C=N/N2CCN(/N=C/c3ccc(O)c(OCC)c3)CC2)ccc1O
inactive: [4] 117 % of control | [5] 94 % of control | [6] 88 % of control

CCCCC(=O)N/N=C/c1ccc(O)cc1O
inactive: [4] 97 % of control | [5] 92 % of control | [6] 94 % of control

CCCN=Cc1cnc(C#N)c(N)n1
inactive: [1] 97 % of control | [2] 94 % of control | [3] 97 % of control
